Test results reported in patent US20210275419A1, “Personal Care Compositions” (Colgate-Palmolive Company, priority 2020, published 2021).

System: tyrosinase
Assay: tyrosinase inhibitor screening kit (Sigma Aldrich, MAK 257 Kit)
Assay type: biochemical
Conditions: Example 4; 0.156 wt. %
Method: (§1) The anti-tyrosinase activity of an exemplary composition of the present invention was compared to the anti-tyrosinase activity of individual short chain fatty acids. Assays were performed using a tyrosinase inhibitor screening kit from Sigma Aldrich; and following the manufacturer's protocol. The results of these experiments are described in Table 1 (below).
as §1, with “Aldrich (MAK 257 Kit);” for “Aldrich;”, “4” for “1”, “(below). […]” for “(below).”
Peels were diluted 1000× in buffer to prepare 0.1% working stock. […] The pH of all test samples and dilutions was measured before and after tyrosinase assay to exclude any effect of acid on the enzyme activity. […] LMP peels containing various concentrations of pyruvic acid at pH 2.5 (“R1 Peels”); LMP peels which were identically formulated to the R1 Peels, but with pH buffered to 3.6 (“R2 Peels”); and LMP′ peels which were identically formulated to the R2 Peels, other than the replacement of pyruvic acid with sodium pyruvate (“R3 Peels”), were all evaluated.

SMILES: O=C(O)C(O)c1ccccc1 (stereo not shown) [Mandelic Acid (M), Mandelic Acid]
- % Tyrosinase Inhibition: 0.06%
